Among the data in patent publication US7276527B2, “5-pyridyl-1,3-azole compounds, process for producing the same and use thereof” (Takeda Pharmaceutical Company Limited, priority 1999, dated 2007) are IC50 and melting point values, retold here.

One data set concerns TNF-α production in THP-1 cells. Nature of the data set: Measurement of inhibiting activity of TNF-α production. Format: cell-based. The conditions noted are these: Homo sapiens, LPS 5 μg/mL, 4 hours, TNF-α in supernatant by ELISA, read-out: IC50 (concentration necessary for inhibiting TNF-α production by 50%). As for the experimental part:
Measurement of Inhibiting Activity of TNF-α Production
After THP-1 cells which had been cultured on PRMI 1640 medium (manufactured by Life Technologies, Inc.) containing 1% non-activated bovine fetal serum (manufactured by Life Technologies, Inc., U.S.A.) and 10 mM HEPES (pH 7.5) seeded on a 96-well plate to 1×10^5 cells/well, 1 μL test compound dissolved in DMSO was added to there. After incubation at 37° C. for 1 hour in a CO2 incubator, LPS (Wako Pure Chemicals) was added to the final concentration 5 μg/mL. After cultured at 37° C. for 4 hours in a CO2 incubator, the supernatant was obtained by centrifugation. The concentration of TNF-α in the supernatant was measured with ELISA (R&D System, Quantikine Kit). The concentration (IC50 value) necessary for inhibiting TNF-α production by 50% was calculated by PRIMS 2.01 (Graphpad Software).
Regarding `COc1ccc(-c2nc(NC(=O)c3cccnc3)sc2-c2ccnc(NC(=O)c3cccnc3)c2)cc1` [Example 3, N-[4-(4-methoxypheny)-5-[2-[(3-pyridylcarbonylamino)]-4-pyridyl]-1,3-thiazol-2-yl]nicotinamide], the IC50 was found to be 26 nM.

On to `COc1ccc(-c2nc(N)sc2-c2ccnc(NC(=O)c3ccccc3)c2)cc1` [Example 4, N-[4-[2-amino-4-(4-methoxyphenyl)-1,3-thiazol-5-yl]-2-pyridyl]benzamide], for which the IC50 worked out at 14 nM.

`Cc1cc(C)cc(-c2nc(N)sc2-c2ccnc(NCc3ccccc3)c2)c1` [Example 6, N-[4-[2-amino-4-(3,5-dimethylphenyl)-1,3-thiazol-5-yl]-2-pyridyl]benzylamine]: the IC50 was determined as 140 nM.

Tested on in the next data set: not given
Test: not given
Settings: not given
Turning to `Cc1cccc(-c2nc(-c3ccc(S(C)(=O)=O)cc3)sc2-c2ccnc(NC(=O)c3cccs3)c2)c1` [Example Compound 21-3, N-[4-[4-(3-methylphenyl)-2-(4-methylsulfonylphenyl)-1,3-thiazol-5-yl]-2-pyridyl]-2-thiophenecarboxamide], the melting point was in the range of 199 to 201 °C. Still for that read-out and setting: as for `Cc1cccc(-c2nc(-c3ccc(S(C)(=O)=O)cc3)sc2-c2ccnc(NC(=O)c3ccc4ccccc4c3)c2)c1` [Example Compound 21-4, N-[4-[4-(3-methylphenyl)-2-(4-methylsulfonylphenyl)-1,3-thiazol-5-yl]-2-pyridyl]-2-naphthamide], the figure is 231 to 233 °C.

Compound `Cc1cccc(-c2nc(-c3ccc(S(C)(=O)=O)cc3)sc2-c2ccnc(NCCCc3ccccc3)c2)c1` [Example Compound 21-6, N-[4-[4-(3-methylphenyl)-2-(4-methylsulfonylphenyl)-1,3-thiazol-5-yl]-2-pyridyl]-N-(3-phenylpropyl) amine] returned a melting point of 167 to 168 °C. Same read-out and setting: as for `Cc1cccc(-c2nc(-c3ccc(S(C)(=O)=O)cc3)sc2-c2ccnc(NCc3ccc4ccccc4c3)c2)c1` [Example Compound 21-7, N-[4-[4-(3-methylphenyl)-2-(4-methylsulfonylphenyl)-1,3-thiazol-5-yl]-2-pyridyl]-N-(2-naphthylmethyl)amine], the figure is 167 to 168 °C; as for `COc1ccc(CNc2cc(-c3sc(N)nc3-c3cccc(C)c3)ccn2)cc1` [Example Compound 23-1, N-[4-[2-amino-4-(3-methylphenyl)-1,3-thiazol-5-yl]-2-pyridyl]-N-(4-methoxybenzyl)amine], 183 to 184 °C; as for `COc1cccc(CNc2cc(-c3sc(N)nc3-c3cccc(C)c3)ccn2)c1` [Example Compound 23-2, N-[4-[2-amino-4-(3-methylphenyl)-1,3-thiazol-5-yl]-2-pyridyl]-N-(3-methoxybenzyl)amine], 152 to 154 °C.

As for `COc1ccccc1CNc1cc(-c2sc(N)nc2-c2cccc(C)c2)ccn1` [Example Compound 23-3, N-[4-[2-amino-4-(3-methylphenyl)-1,3-thiazol-5-yl]-2-pyridyl]-N-(2-methoxybenzyl)amine], the melting point is 158 to 159 °C. The compound `Cc1cccc(-c2nc(N)sc2-c2ccnc(NCc3ccc(Cl)cc3)c2)c1` [Example Compound 23-4, N-[4-[2-amino-4-(3-methylphenyl)-1,3-thiazol-5-yl]-2-pyridyl]-N-(4-chlorobenzyl)amine] came in with a melting point of 182 to 183 °C. On the same count and under the same terms, as for `Cc1cccc(-c2nc(N)sc2-c2ccnc(NCc3cccc(Cl)c3)c2)c1` [Example Compound 23-5, N-[4-[2-amino-4-(3-methylphenyl)-1,3-thiazol-5-yl]-2-pyridyl]-N-(3-chlorobenzyl)amine], the figure is 180 to 181 °C; as for `Cc1cccc(-c2nc(N)sc2-c2ccnc(N[C@H](C)c3ccccc3)c2)c1` [Example Compound 23-6, (R)-N-[4-[2-amino-4-(3-methylphenyl)-1,3-thiazol-5-yl]-2-pyridyl]-N-(1-phenylethyl)amine], 94 to 98 °C. Still for that read-out and setting: then `Cc1cccc(-c2nc(N)sc2-c2ccnc(N[C@@H](C)c3ccccc3)c2)c1` [Example Compound 23-7, (S)-N-[4-[2-amino-4-(3-methylphenyl)-1,3-thiazol-5-yl]-2-pyridyl]-N-(1-phenylethyl)amine], with 93 to 96 °C; and `Cc1cccc(-c2nc(N)sc2-c2ccnc(N(C)Cc3ccccc3)c2)c1` [Example Compound 23-8, N-[4-[2-amino-4-(3-methylphenyl)-1,3-thiazol-5-yl]-2-pyridyl]-N-benzyl-N-methylamine], with 138 to 140 °C; and `COc1cccc(-c2nc(N)sc2-c2ccnc(NCc3ccccc3)c2)c1` [Example Compound 24, N-[4-[2-amino-4-(3-methoxyphenyl)-1,3-thiazol-5-yl]-2-pyridyl]-N-benzylamine], with 217 to 218 °C. Still for that read-out and setting: then `Cc1cccc(-c2nc(-c3ccc(S(C)(=O)=O)cc3)sc2-c2ccnc(NCc3ccc(F)cc3)c2)c1` [Example Compound 25-2, N-(4-fluorobenzyl)-N-[4-[4-(3-methylphenyl)-2-(4-methylsulfonylphenyl)-1,3-thiazol-5-yl]-2-pyridyl]amine], with 155 to 158 °C; and `Cc1cccc(-c2nc(-c3ccc(S(C)(=O)=O)cc3)sc2-c2ccnc(N(C)Cc3ccccc3)c2)c1` [Example Compound 25-3, N-benzyl-N-methyl-N-[4-[4-(3-methylphenyl)-2-(4-methylsulfonylphenyl)-1,3-thiazol-5-yl]-2-pyridyl]amine], with 165 to 166 °C.

Regarding `Cc1cccc(-c2nc(-c3ccc(S(C)(=O)=O)cc3)sc2-c2ccnc(N(C)CCc3ccccc3)c2)c1` [Example Compound 25-4, N-methyl-N-[4-[4-(3-methylphenyl)-2-(4-methylsulfonylphenyl)-1,3-thiazol-5-yl]-2-pyridyl]-N-(2-phenylethyl)amine], the melting point is 116 to 117 °C. Same read-out and setting: then `Cc1cccc(-c2nc(-c3ccc(S(C)(=O)=O)cc3)sc2-c2ccnc(NCc3cccs3)c2)c1` [Example Compound 25-5, N-[4-[4-(3-methylphenyl)-2-(4-methylsulfonylphenyl)-1,3-thiazol-5-yl]-2-pyridyl]-N-(2-thienylmethyl)amine], with 107 to 109 °C.

The melting point is the temperature of the solid-liquid transition.
